≈ marks a conversion by molar mass, not a printed value.
Columns and labels:
[1] = target: Tubulin alpha chain (Sus scrofa, UniProt P02550); assay: Inhibition of the polymerization of tubulin; assay type: functional
[2] = test system: KB; assay: Compound was tested for cytotoxicity against human KB cells; assay type: functional, cell-based

Chain of Tubulin alpha chain (P02550 whole entry, looked up): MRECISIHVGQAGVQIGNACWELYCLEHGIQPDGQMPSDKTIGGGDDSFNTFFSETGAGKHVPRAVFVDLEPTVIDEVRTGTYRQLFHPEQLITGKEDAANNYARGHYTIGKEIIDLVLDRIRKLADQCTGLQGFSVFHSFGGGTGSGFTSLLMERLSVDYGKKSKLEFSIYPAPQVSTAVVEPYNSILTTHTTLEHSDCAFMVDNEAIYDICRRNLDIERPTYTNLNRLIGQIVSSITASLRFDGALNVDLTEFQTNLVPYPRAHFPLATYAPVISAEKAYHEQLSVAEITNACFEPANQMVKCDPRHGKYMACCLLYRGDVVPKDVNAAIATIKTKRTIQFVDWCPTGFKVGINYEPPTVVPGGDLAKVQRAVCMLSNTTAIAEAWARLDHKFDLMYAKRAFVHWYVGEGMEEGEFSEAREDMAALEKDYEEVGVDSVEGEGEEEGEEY

| SMILES | IC50 [1] | IC50 [2] |
| --- | --- | --- |
| CC(=O)OC[C@@]1(C)c2c(c3c(C)c(O)ccc3oc2=O)O[C@H]1C | 10 µM | 23 µg/mL (≈ 72.3 µM) |
| Cc1c(O)ccc2oc(=O)c3c(c12)OC(C)C3(C)C (centres undefined) | – | 1.5 µg/mL (≈ 5.76 µM) |
| COc1cc(=O)oc2ccc(O)c(C)c12 | – | 4.8 µg/mL (≈ 23.3 µM) |
| Cc1c(O)ccc2oc(=O)c3c(c12)O[C@H](C)[C@@]3(C)CO | – | 4.3 µg/mL (≈ 15.6 µM) |
| Cc1c(O)ccc2oc(=O)c3c(c12)O[C@@H](C)[C@@]3(C)CO | – | 5.7 µg/mL (≈ 20.6 µM) |
| CC(=O)OC[C@@]1(C)c2c(c3c(C)c(O)ccc3oc2=O)O[C@@H]1C | 30 µM | 17 µg/mL (≈ 53.4 µM) |
| Cc1c(OC2O[C@H](CO)[C@@H](O)[C@H](O)[C@H]2O)ccc2oc(=O)c3c(c12)OC(C)C3(C)C (single isomer, unassigned) | – | 6.7 µg/mL (≈ 15.9 µM) |
